Experimental data from patent US20250074946A1, “USE OF SE-DR AFFINITY PEPTIDE IN PREPARING DRUG FOR TREATING RHEUMATIC DISEASE” (HEBEI FITNESS BIOTECHNOLOGY CO., LTD., priority 2021, published 2025).
Where no end group is shown, it is not given here.

Experiments:
[1] = system: CIA rats with latent tuberculosis infection
[2] = system: immune system of healthy rats; test: Immune indicators of SD rats after one month of administration (Example 4); type: in vivo, rat; details: once a day for 4 weeks, end of administration
Description: SD rats were used to investigate the effects of the SE-DR affinity peptides on the immune indicators of the rats after continuous administration for one month. […] At the end of administration, analysis was conducted on the serum anti-FNS007 antibodies, different types of serum immunoglobulins, the serum complement, the peripheral blood T lymphocyte and the serum cytokines.

[3] = system: immune system of healthy monkeys; test: Immune indicators of cynomolgus monkeys after one month of administration (Example 5); type: in vivo, cynomolgus monkey; details: once a day for 4 weeks, end of administration
Excerpt: Cynomolgus monkeys were used to investigate the effects of the SE-DR affinity peptide on the immune indicators of cynomolgus monkeys after continuous administration for one month. […] At the end of administration, the immune indicators, including the serum anti-FNS007 antibodies, the immunoglobulins of different serotypes, the serum complement, the peripheral blood T lymphocyte and the serum cytokines, were observed.

[4] = system: CIA rats; type: in vivo, rat
Excerpt: Female Lewis rats were used to establish CIA model. Methods: The rats were immunized by intradermal injection with the emulsion prepared by bovine C II and IFA at the tail head. After 7 days, the rats were boosted once with the same method. Thereafter, the morphological changes of the four paws of the rats were examined every day. […] Another 8 female Lewis rats were not subjected to model establishment and set as the control group. PBS was administrated to both the model group and the control group. […] The inflammation scores of the four paws of the rats in each group were evaluated during the administration (once every other day), and the area under the curve (AUC) of the inflammation score was calculated during the administration. During drug discontinuation, the inflammation scores of the four paws of the rats in each group were continuously evaluated (once every other day), and the rats were sacrificed on day 22 after drug discontinuation. HE staining was performed on the ankle joint for tissue injury evaluation. The specific scoring criteria were as follows: 0=normal synovial tissue; 1=synovial hyperplasia and inflammatory cell infiltration; 2=pannus formation and cartilage erosion; 3=destruction of most of the cartilage with subchondral bone erosion; 4=loss of joint integrity, ankylosis.

[5] = system: CIA rats; test: CIA rat model: inflammation score AUC and peripheral blood T-cell subtypes (Example 3); type: in vivo; details: 0.2 mmol
Description: Collagen-induced arthritis (CIA) model was established by intradermal injection of the emulsion formulated using type II bovine collagen (CII) together with incomplete Freund's adjuvant (IFA) into the tail head of a female Lewis rat. After the model establishment, the morphological changes of rats' four paws were examined every day. […] Except for the model group, the dosage of polypeptide was all set as 0.2 mmol. A control group was also set up, in which the drug was injected into the tail vein once every other day for […]. The area under the curve (AUC) of the inflammation score was used for the efficacy analysis from the day the rats were enrolled, once every other day, until the end of administration.

[6] = system: PBMC; test: PBMC stimulation test, IL-6 in supernatant by ELISA; type: cell-based, human; details: PBMC 1×10^6 cell/ml, peptide 10 μg/ml, 5 days of culture
Procedure, shortened: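 Human PBMC isolated from blood by Ficoll density centrifugation, seeded at 1×10^6 cell/ml in 1640 complete medium with peptide at final 10 μg/ml. Cultured 5 days; IL-6 in supernatant measured by ELISA.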

[7] = peripheral blood, […] after end of administration, flow cytometry

FKGEQAGAGE [APL2] was tested, and the “Observation on the daily condition of rats” value ([1]; during administration) was “No abnormality”, the Tuberculosis recurrence rate ([1]; peptides 0.2 mmol, adalimumab 1 mg/kg, 21 days) was 0% and the “Inflammation score and area under the time curve (AUC)” value ([1]; peptides 0.2 mmol, adalimumab 1 mg/kg, tail i.v. once every other day for 21 days) was 48.03 ± 31.91. For the same sequence, the “Culture of MTB from lungs and spleens of rats at sacrifice” value ([1]; sacrifice on day 22, peptides 0.2 mmol, adalimumab 1 mg/kg) was “Negative”, the CD3% [2] was 37.4 ± 10.52% and the CD4% [2] was 19.77 ± 6.05%. For the same sequence, the CD8% [2] was 17.29 ± 7.09%, the IFN-γ [2] was 2.47 ± 0.36 pg/mL and the IL-2 [2] was 3.69 ± 3.03 pg/mL. For the same sequence, the IL-4 [2] was 1.96 ± 1.26 pg/mL, the TNF-α [2] was 5.13 ± 1.83 pg/mL and the CD3% [3] was 63.37 ± 16.35%. The CD4% [3] was 27.33 ± 6.66%, the CD8% [3] was 21.74 ± 4.37% and the IFN-γ [3] was 5.09 ± 0.52 pg/mL. The IL-2 [3] was 4.62 ± 0.86 pg/mL, the IL-4 [3] was 2.12 ± 0.42 pg/mL and the TNF-α [3] was 2.42 ± 0.51 pg/mL. The “inflammation score during drug discontinuation compared with that at the time of drug discontinuation” value ([4]; 21 days of observation after stopping at day 21) was “could maintain the therapeutic effect”, the “Pathological score during 21 days of drug discontinuation” value ([4]; HE staining of ankle joint, score 0-4) was 1.93 ± 0.58 and the “AUC, during drug discontinuation (day 22-42)” value ([4]; inflammation score AUC after stopping administration at day 21) was 42.86 ± 31.21. For the same sequence, the “Incidence of infection in rats” value ([4]; rat, in vivo) was 0%, the “Observation on the daily state of rats” value ([4]; rat, in vivo) was “No” and the “Inflammation score and area under the time curve (AUC)” value ([5]; female Lewis CIA rats, tail vein once every other day for 15 days) was 52.37 ± 33.69. The “Th1 (%)” value [5, 7] was 0.16 ± 0.09 %, the “Th2 (%)” value [5, 7] was 4.53 ± 0.50 % and the “Th17 (%)” value [5, 7] was 0.87 ± 0.09 %. For the same sequence, the “Treg (%)” value [5, 7] was 5.52 ± 0.68 % and the “IL-6 levels in the supernatant” value [6] was 2.3 ng/mL.
